Experimental data: PubChem BioAssay AID2060488 (Molecular Pharmacology Branch, DTP, NCI, 2025)
Values belong to the molecule of their own block, whether it stands above or below them.

System: 966289-007-R4-J1-PDC complex spheroid viability
Test: Anticancer human tumor 966289-007-R4-J1-PDC patient-derived pancreatic adenocarcinoma cell line growth inhibition [GQUAD]
Conditions: for IC50: curve of first compound; for viability, T/C: stronger effect = lower value
Description: DNA G-quadruplex Stabilizer Agents in Combinations in Complex Spheroids
A high-throughput screen of multi-cell type tumor spheroids was designed to identify active combinations of DNA G-quadruplex stabilizer agents and targeted small molecules. Complex spheroids include a stromal component modeled by human endothelial cells (HUVEC) and fibroblasts modeled by human mesenchymal stem cells (MSCs). The concentration ranges selected for each drug and investigational agent were based upon clinically achievable concentrations if the clinical Cmax of the agent was known.
Compounds. The drugs and investigational agents: pidnarulex (CX-5461; NSC782164), APTO-253 (NSC789042), BRACO-19 (NSC847499), peposertib (NSC802822), ceralasertib (NSC780249), elimusertib (NSC800525), camonsertib (NSC841442), AZD-1390 (NSC803789), olaparib (NSC753686), talazoparib (NSC767125), ART-558 (NSC835418), sotorasib (NSC818433), MRTX-1133 (NSC836407), SN-38 (NSC673596), topotecan (NSC609699), etoposide (NSC141540), doxorubicin (NSC123127), gemcitabine (NSC613327), 5-fluorouracil (NSC19893), paclitaxel (NSC125973), vemurafenib (NSC761431), panobinostat (NSC761190), R-306465 (JNJ-16241199; NSC773264), adavosertib (NSC754352), TP-3654 (NSC805149), carboplatin (NSC241240), KSQ-4279 (NSC840948), and staurosporine (NSC755774) were obtained from the National Cancer Institute (NCI) Developmental Therapeutics Program Chemical Repository (34). The FDA-approved anticancer drug set is available from the NCI Developmental Therapeutics Program. […] The stock solutions were prepared in dimethyl sulfoxide (DMSO, Sigma-Aldrich, St. Louis, MO, cat. D2650) at 800-fold the tested concentration and stored at -70 degrees C prior to their use. All drugs and investigational agents were tested over a range starting from a high concentration at or near the clinical Cmax and decreasing in half-log increments. If the clinical Cmax for an agent had not been determined, the highest concentration tested was 10 microM.
2.3 Cell Culture. All cells were maintained in an incubator at 37 degrees C and 5% CO2 with 95% humidity. The PDC lines were cultured according to standard operating procedures established by the NCI PDMR. All PDCs were thawed and cultured in Matrigel-coated flasks prepared with a working solution of 1X Ham's F-12 nutrient mix, without supplementation (Invitrogen, cat. 11765054), 100 U/mL penicillin-streptomycin (Invitrogen, cat. 15140122), and 2.5% Matrigel (Corning Inc., cat. 354248) for the first three passages. The 857933-349-R-J2-PDC line was cultured in 6C/Colon 1B media, which includes advanced DMEM/F-12 (Thermo Fisher Scientific, cat. 12634028), 10 mM HEPES (Thermo Fisher Scientific, cat. 15630080), 1X GlutaMAX supplement (Thermo Fisher Scientific, cat. 35050061), 0.1 mg/mL primocin (InvivoGen, cat. ant-pm-2), 10% defined fetal bovine serum, heat inactivated (HyClone Laboratories Inc., cat. SH30070.03HI), 50% L-WRN conditioned media (ATCC, cat. CRL-3276), 1.25 mM N-Acetyl-L-cysteine (Sigma-Aldrich, cat. A9165), 10 mM nicotinamide (Sigma-Aldrich, cat. N0636), 1X B-27 supplement (Thermo Fisher Scientific, cat. 17504044), 1X N-2 supplement (Thermo Fisher Scientific, cat. 17502048), 10 microM Y-27632 dihydrochloride (Tocris Bioscience, cat. 1254), and 50 ng/mL human EGF recombinant protein (Thermo Fisher Scientific, cat. PHG0311). The 485176-168-R4-J1-PDC line was cultured in Panc media, which includes all 6C/Colon 1B media components plus 100 ng/mL human FGF-10 (Thermo Fisher Scientific, cat. 100-26), 500 nM SB-431542 (Selleckchem, cat. S1067), and gastrin (Tocris, cat. 3006).
[…]

[1] = second compound 0.0316 µM, first compound 0.0316 µM
[2] = second compound 0.0316 µM, first compound 0.1 µM
[3] = second compound 0.0316 µM, first compound 0.316 µM
[4] = second compound 0.0316 µM, first compound 1 µM
[5] = second compound 0.0316 µM, first compound 3.16 µM
[6] = second compound 0.0316 µM, first compound 10 µM
[7] = second compound 0.1 µM, first compound 0.0316 µM
[8] = second compound 0.1 µM, first compound 0.1 µM
[9] = second compound 0.1 µM, first compound 0.316 µM
[10] = second compound 0.1 µM, first compound 1 µM
[11] = second compound 0.1 µM, first compound 3.16 µM
[12] = second compound 0.1 µM, first compound 10 µM
[13] = second compound 0.316 µM, first compound 0.0316 µM
[14] = second compound 0.316 µM, first compound 0.1 µM
[15] = second compound 0.316 µM, first compound 0.316 µM
[16] = second compound 0.316 µM, first compound 1 µM
[17] = second compound 0.316 µM, first compound 3.16 µM
[18] = second compound 0.316 µM, first compound 10 µM
[19] = second compound 1 µM, first compound 0.0316 µM
[20] = second compound 1 µM, first compound 0.1 µM
[21] = second compound 1 µM, first compound 0.316 µM
[22] = second compound 1 µM, first compound 1 µM
[23] = second compound 1 µM, first compound 3.16 µM
[24] = second compound 1 µM, first compound 10 µM
[25] = second compound 3.16 µM, first compound 0.0316 µM
[26] = second compound 3.16 µM, first compound 0.1 µM
[27] = second compound 3.16 µM, first compound 0.316 µM
[28] = second compound 3.16 µM, first compound 1 µM
[29] = second compound 3.16 µM, first compound 3.16 µM
[30] = second compound 3.16 µM, first compound 10 µM
[31] = second compound 10 µM, first compound 0.0316 µM
[32] = second compound 10 µM, first compound 0.1 µM
[33] = second compound 10 µM, first compound 0.316 µM
[34] = second compound 10 µM, first compound 1 µM
[35] = second compound 10 µM, first compound 3.16 µM
[36] = second compound 10 µM, first compound 10 µM
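Note: spheroids exposed to the agents for seven days before readout.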
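Throughout, for viability, T/C: percent viability relative to DMSO vehicle control wells taken as 100%.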

IC50 (second compound 0.0316 µM): < 0.0316 µM
IC50 (second compound 0.1 µM): < 0.0316 µM
IC50 (second compound 0.316 µM): < 0.0316 µM
IC50 (second compound 1 µM): < 0.0316 µM
IC50 (second compound 3.16 µM): < 0.0316 µM
IC50 (second compound 10 µM): < 0.0316 µM
SMILES: CC1COCCN1c1cc(-c2ccnn2C)c2ccnc(-c3ccn[nH]3)c2n1 (centres undefined) + Cc1cnc(CNC(=O)c2c(=O)c3ccc(N4CCCN(C)CC4)nc3n3c2sc2ccccc23)cn1
viability, T/C [1]: 24.3%
viability, T/C [2]: 6.05%
viability, T/C [3]: 4.12%
viability, T/C [4]: 4.23%
viability, T/C [5]: 3.36%
viability, T/C [6]: 2.9%
viability, T/C [7]: 6.63%
viability, T/C [8]: 3.84%
viability, T/C [9]: 4.03%
viability, T/C [10]: 4.94%
viability, T/C [11]: 3.73%
viability, T/C [12]: 3.29%
viability, T/C [13]: 7.42%
viability, T/C [14]: 5.9%
viability, T/C [15]: 5.46%
viability, T/C [16]: 5.36%
viability, T/C [17]: 3.91%
viability, T/C [18]: 3.35%
viability, T/C [19]: 5.44%
viability, T/C [20]: 5.41%
viability, T/C [21]: 6.4%
viability, T/C [22]: 6.38%
viability, T/C [23]: 5.26%
viability, T/C [24]: 3.91%
viability, T/C [25]: 3.88%
viability, T/C [26]: 3.62%
viability, T/C [27]: 4.85%
viability, T/C [28]: 5.21%
viability, T/C [29]: 6.21%
viability, T/C [30]: 4.16%
viability, T/C [31]: 0.03%
viability, T/C [32]: 0.07%
viability, T/C [33]: 0.1%
viability, T/C [34]: 0.08%
viability, T/C [35]: 0.11%
viability, T/C [36]: 0.15%

IC50 (second compound 0.0316 µM): 2.7 µM
IC50 (second compound 0.1 µM): < 0.0316 µM
IC50 (second compound 0.316 µM): < 0.0316 µM
IC50 (second compound 1 µM): < 0.0316 µM
IC50 (second compound 3.16 µM): < 0.0316 µM
IC50 (second compound 10 µM): < 0.0316 µM
SMILES: CC1COCCN1c1cc(C2(S(C)(=N)=O)CC2)nc(-c2ccnc3[nH]ccc23)n1 (centres undefined) + Cc1cnc(CNC(=O)c2c(=O)c3ccc(N4CCCN(C)CC4)nc3n3c2sc2ccccc23)cn1
viability, T/C [1]: 119%
viability, T/C [2]: 108%
viability, T/C [3]: 107%
viability, T/C [4]: 44.5%
viability, T/C [5]: 68.7%
viability, T/C [6]: 3.76%
viability, T/C [7]: 42.7%
viability, T/C [8]: 34.2%
viability, T/C [9]: 20.3%
viability, T/C [10]: 11.8%
viability, T/C [11]: 15.3%
viability, T/C [12]: 4.26%
viability, T/C [13]: 16.7%
viability, T/C [14]: 13.1%
viability, T/C [15]: 12.2%
viability, T/C [16]: 8.4%
viability, T/C [17]: 11.7%
viability, T/C [18]: 3.59%
viability, T/C [19]: 7.28%
viability, T/C [20]: 8.94%
viability, T/C [21]: 8.19%
viability, T/C [22]: 6.87%
viability, T/C [23]: 8.21%
viability, T/C [24]: 2.84%
viability, T/C [25]: 5.74%
viability, T/C [26]: 6.34%
viability, T/C [27]: 6.62%
viability, T/C [28]: 5.33%
viability, T/C [29]: 6.14%
viability, T/C [30]: 2.86%
viability, T/C [31]: 0.15%
viability, T/C [32]: 0.14%
viability, T/C [33]: 0.19%
viability, T/C [34]: 0.18%
viability, T/C [35]: 0.19%
viability, T/C [36]: 0.16%
